For the assay, the target named is T1, Cx43 (Mus musculus, UniProt P23242).
T1 construct: from tissue; host or cells: brain of living wild-type C57BL/6 male mice (in vivo)
Kind of assay: Manganese-enhanced MRI (MEMRI) of mouse brain after administration of connexin modulators. Conditions: for T1-w signal intensity (% of control): 1 mg/kg i.p. 2.5h before imaging, 24h after MnCl2 50 mg/kg i.p., mean ± SEM; for increase of T1-w signal intensity: n=6, change versus control, 1 mg/kg i.p. In kind it is in vivo, wild-type C57BL/6 male mice. The method, then:
The MRI measurements were performed on 42 wild-type C57BL/6 male mice. All mice weighed between 25 and 35 g. Mice were housed 4-5 per cage under standard conditions (12/12 h light-dark cycle, light on at 7 am, 22 ± 1°C ambient temperature, 60% relative humidity). This work was carried out in accordance with the Policies of the French Committee of Ethics. Animal surgery and experimentations conducted in this study were authorized by the French Direction of Veterinary Services and all efforts were made to improve animal welfare and minimize animals suffering.
All animals were injected intraperitoneally with MnCl2 50 mg/kg. Animals received an injection of treatment (or saline) 24h after the MnCl2 administration, and were imaged 2.5h later.
The mice were anesthetized with 0.5-1.0% isoflurane in air throughout the experiments. The respiration rate was monitored and the body temperature was maintained at 36.5 °C using an MR-compatible, feedback-controlled air heating system (model 1025; SA Instruments, NY). A capillary filled with 100 µM MnCl2 was placed on the head, inside the RF coil, and was used as signal intensity reference.
The T1-weighted images were acquired using a 3D rapid acquisition with relaxation enhancement (RARE) sequence: RARE factor 4, repetition time/echo time = 250 ms / 6 ms, 4 averages. For T1 relaxation time measurements, a true fast Imaging with Steady-state free Precession (trueFISP) sequence was used with the following acquisition parameters: repetition time/echo time = 3.66/1.83 ms, flip angle = 10, inversion time = 80 ms, number of inversion times = 60, 2 averages.
The position of the brain image was co-registered to a template using SPM8 software (Welcome Trust Center for Neuroimaging, UK). The template image was co-registered to mouse brain atlas (Paxinos and Franklin's the Mouse Brain in Stereotaxic Coordinates 3rd Edition). T1-weighted signals were normalized using the signal intensity from the reference tube. T1 maps were calculated as described previously elsewhere (74). Eighteen regions of interest (ROIs) were defined using the mouse brain atlas.
The averaged T1-weighted signals and T1 values were calculated using an in house written Matlab program. To compensate for differences in coil sensitivity between left and right channels we calculated the signal intensities in ROIs drawn in the left and right cerebral cortex, including the somatosensory cortex and insular cortex, (ROIcortex_left ROIcortex_right). The averaged T1-weighted signal intensity on the left side (SIleft) was then corrected following the equation: SIleft_corrected = SIleft × SIcortex_right /SIcortex_left [formula]
Statistical analyses were performed using GraphPad Prism version 7.0c. Data were analyzed using Mann-Whitney non-parametric test, paired t test or one sample t test compared to the hypothetical value 1 or 100 as appropriate. In each experiment, a level of p<0.05 was accepted as evidence for a statistically significant effect. * p<0.05; ** p<0.01; *** p<0.001. Response of the MEMRI signal after drugs administration are expressed as means ± SEM of percent of control. The remaining data are expressed as mean ± SEM.
For all, MEMRI signals are expressed as percentage of control. Statistical significances are based on the comparison to the hypothetical value 100%.

[1] abbreviates: LPB = Lateral parabrachial nucleus.
[2] abbreviates: mPFC = Medial prefrontal cortex.

Structures can show the parent of a compound that is named as a salt.

T1 sequence (P23242 2-382 limits assumed): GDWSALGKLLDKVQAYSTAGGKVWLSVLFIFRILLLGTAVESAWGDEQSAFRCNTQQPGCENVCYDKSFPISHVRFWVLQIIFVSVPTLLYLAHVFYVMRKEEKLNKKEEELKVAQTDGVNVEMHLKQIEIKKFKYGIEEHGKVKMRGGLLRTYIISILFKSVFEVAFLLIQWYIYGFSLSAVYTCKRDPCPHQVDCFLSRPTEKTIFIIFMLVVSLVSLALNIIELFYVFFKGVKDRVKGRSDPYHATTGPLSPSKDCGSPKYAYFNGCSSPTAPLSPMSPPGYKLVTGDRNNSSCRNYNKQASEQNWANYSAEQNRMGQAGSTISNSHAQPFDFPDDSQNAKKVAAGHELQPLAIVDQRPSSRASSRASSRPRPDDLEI

Regarding `O=C(NCC1CCCCN1)c1cc(OCC(F)(F)F)ccc1OCC(F)(F)F` (centres unmarked) [flecainide, flecainide acetate salt], the “T1-w signal intensity (% of control)” value is reported as 114 ± 4.04 % of control (AC = Auditory cortex); 123 ± 5.73 % of control (Cg = Cingulate cortex); 120 ± 6.01 % of control (Cpu = Caudate putamen); 122 ± 6.86 % of control (DRa = Dorsal raphe pallidus); 118 ± 4.73 % of control (Hip = Hippocampus); 121 ± 7.05 % of control (Hyp = Hypothalamus). Also, the “T1-w signal intensity (% of control)” value (IC = Insular cortex) is reported as 118 ± 5.62 % of control; the “T1-w signal intensity (% of control)” value (LC = Locus coeruleus) was 119 ± 5.69 % of control; the “T1-w signal intensity (% of control)” value under setting [1] is 119 ± 6.07 % of control; the “T1-w signal intensity (% of control)” value (MC = Motor cortex) is on record as 122 ± 5.09 % of control; the “T1-w signal intensity (% of control)” value (OB = Olfactory bulb) is 123 ± 9.21 % of control; the “T1-w signal intensity (% of control)” value (OC = Orbital cortex) is 123 ± 8.23 % of control. Besides, the “T1-w signal intensity (% of control)” value reads like this: (PrL = Prelimbic cortex) 121 ± 7.09 % of control; (SC = Somatosensory cortex) 120 ± 4.88 % of control; (SN = Substantia nigra) 117 ± 6.97 % of control; (Sep = Septum) 119 ± 6.95 % of control; (ThN = Thalamic nuclei) 121 ± 5.47 % of control; under setting [2], 121 ± 6.86 % of control. The “increase of T1-w signal intensity” value (dorsal raphe pallidus) is recorded as “approximately +21.9%”, the “increase of T1-w signal intensity” value (hypothalamus) is listed as “~+20.9%”, the “increase of T1-w signal intensity” value (lateral parabrachial nucleus) is listed as “~+19%” and the “increase of T1-w signal intensity” value (locus coeruleus) was “~+19.2%”.
Regarding `Cc1ccc(Cl)c(Nc2ccccc2C(=O)O)c1Cl` [meclofenamic acid], the “T1-w signal intensity (% of control)” value (AC = Auditory cortex) is 117 ± 5.68 % of control; the “T1-w signal intensity (% of control)” value (Cg = Cingulate cortex) is 127 ± 4.49 % of control; the “T1-w signal intensity (% of control)” value (Cpu = Caudate putamen) was 130 ± 3.90 % of control; the “T1-w signal intensity (% of control)” value (DRa = Dorsal raphe pallidus) is listed as 112 ± 5.31 % of control; the “T1-w signal intensity (% of control)” value (Hip = Hippocampus) is 118 ± 4.32 % of control; the “T1-w signal intensity (% of control)” value (Hyp = Hypothalamus) was 118 ± 5.38 % of control. Further, the “T1-w signal intensity (% of control)” value (IC = Insular cortex) is 128 ± 5.17 % of control; the “T1-w signal intensity (% of control)” value (LC = Locus coeruleus) is recorded as 104 ± 6.23 % of control; the “T1-w signal intensity (% of control)” value under setting [1] is recorded as 106 ± 6.15 % of control; the “T1-w signal intensity (% of control)” value (LPB = Lateral parabrachial nucleus, listed as MFA) is 106 ± 6,15 % of control; the “T1-w signal intensity (% of control)” value (MC = Motor cortex) is 122 ± 4.61 % of control; the “T1-w signal intensity (% of control)” value (OB = Olfactory bulb) was 147 ± 4.91 % of control. For the same compound, the “T1-w signal intensity (% of control)” value reads like this: (OC = Orbital cortex) 138 ± 4.69 % of control; (PrL = Prelimbic cortex) 136 ± 4.41 % of control; (SC = Somatosensory cortex) 120 ± 4.90 % of control; (SN = Substantia nigra) 118 ± 5.67 % of control; (Sep = Septum) 136 ± 3.68 % of control; (ThN = Thalamic nuclei) 120 ± 4.87 % of control. Further, under setting [2], the “T1-w signal intensity (% of control)” value is 136 ± 4.33 % of control. For the same compound, the “increase of T1-w signal intensity” value (hypothalamus) is reported as “approximately +18.5%”, the “increase of T1-w signal intensity” value (olfactory bulb) was “~+47.4%” and the “increase of T1-w signal intensity” value (substantia nigra) is “~+17.9%”.
For `OC(c1cc(C(F)(F)F)nc2c(C(F)(F)F)cccc12)C1CCCCN1` (centres unmarked) [mefloquine, Mefloquine], the “T1-w signal intensity (% of control)” value runs as follows: (DRa = Dorsal raphe pallidus) 113 ± 6.84 % of control; (Hyp = Hypothalamus) 113 ± 8.39 % of control; (LC = Locus coeruleus) 111 ± 7.61 % of control; under setting [1], 111 ± 6.96 % of control. Further, the “increase of T1-w signal intensity” value (olfactory bulb) is “+26.5%” and the “increase of T1-w signal intensity” value (substantia nigra) was “+19,2%”.

The values above are taken from patent publication EP3593822A1, “THERAPEUTIC AND DIAGNOSTIC APPLICATIONS OF A NEW METHOD OF MONITORING OF NEUROGLIAL INTERACTION MEMRI)” (Theranexus, priority 2018, dated 2020).
